Laboratory results as given in PMC5428333, “Novel protein acetyltransferase, Rv2170, modulates carbon and energy metabolism in Mycobacterium tuberculosis” (Scientific Reports, 2017).

What was measured:
Rv2170 [1] = target: T1, Rv2170 (Mycobacterium tuberculosis, UniProt O53504)
Rv2170 [2] = target: T1, Rv2170; remark: listed apart in the source

T1 sequence (O53504 whole entry): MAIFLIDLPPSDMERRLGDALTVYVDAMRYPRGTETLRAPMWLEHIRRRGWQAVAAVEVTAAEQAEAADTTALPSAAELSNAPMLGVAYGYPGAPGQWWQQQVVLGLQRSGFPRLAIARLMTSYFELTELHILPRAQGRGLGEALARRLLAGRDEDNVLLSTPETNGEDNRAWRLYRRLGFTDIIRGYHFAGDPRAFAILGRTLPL

SMILES	DTNB assay of free CoA at 412 nm; also 14C transfer to ICDH1 by SDS-PAGE and pho (Rv2170 [1])	14C transfer to ICDH1, SDS-PAGE and phosphorimaging (Rv2170 [2])
CC(=O)SCCNC(=O)CCNC(=O)[C@H](O)C(C)(C)COP(=O)(O)OP(=O)(O)OC[C@H]1O[C@@H](n2cnc3c(N)ncnc32)[C@H](O)[C@@H]1OP(=O)(O)O [acetyl-CoA]	sigmoidal response in kinetic analysis of Rv2170 when the concentration of acetyl-CoA was increased	–
CCC(=O)SCCNC(=O)CCNC(=O)[C@H](O)C(C)(C)COP(=O)(O)OP(=O)(O)OC[C@H]1O[C@@H](n2cnc3c(N)ncnc32)[C@H](O)[C@@H]1OP(=O)(O)O [propionyl-CoA]	–	Rv2170 is also capable of modifying ICDH1 with the succinyl-CoA and propionyl-CoA donors
